In patent publication US9044426B2, “Antimicrobial peptides for treatment of infectious diseases” (Dr. Roland Berecz, priority 2011, dated 2015):
Where no end group is shown, it is not given here.

Each sequence was assayed on luminescent bacteria (assay: Luminescence screen of SPOT-synthesized peptides on luminescent bacteria, with recovery check). Conditions: 0.1 M Tris buffer pH 7.4, 20 mM glucose, luminescence after 4 hours, recovery inspected after 18 h.
Type: cell-based
Protocol: The peptides are synthesized using standard Fmoc-strategy on cellulose with the SPOT technology; they are positively charged peptides, which were then cleaved from the cellulose and solubilized in water. Peptides were transferred into wells containing luminescent bacteria, in 0.1 M Tris buffer (pH 7.4), containing 20 mM glucose. After 4 hours of incubation time, the luminescence was measured using a microtiter plate reader. Consequently, 50 μl of Mueller-Hinton media was added in order to check for recovery of the bacteria. The plates were manually inspected after 18 h of incubation time.
For “KRRWRIWLV (also: cellulose-bound) [KRRWRIWLV (SEQ ID NO.:15), peptide synthesized on cellulose with the SPOT technology]”, the antimicrobial activity was “showed antimicrobial activity”. With “RRRWWKLMM (also: cellulose-bound) [RRRWWKLMM (SEQ ID NO.:20), peptide synthesized on cellulose with the SPOT technology]” the antimicrobial activity was “showed antimicrobial activity”. In the case of “RTKKWIVWI (also: cellulose-bound) [RTKKWIVWI (SEQ ID NO.:28), peptide synthesized on cellulose with the SPOT technology]”, the antimicrobial activity is reported as “showed antimicrobial activity”. With “LRRWIRIRW (also: cellulose-bound) [LRRWIRIRW (SEQ ID NO.:21), peptide synthesized on cellulose with the SPOT technology]” the antimicrobial activity was “showed antimicrobial activity”. In the case of “RIRRWKFRW (also: cellulose-bound) [RIRRWKFRW (SEQ ID NO.:6), peptide synthesized on cellulose with the SPOT technology]”, the antimicrobial activity is reported as “showed antimicrobial activity”. In the case of “KFKWWRMLI (also: cellulose-bound) [KFKWWRMLI (SEQ ID NO.:10), peptide synthesized on cellulose with the SPOT technology]”, the antimicrobial activity is reported as “showed antimicrobial activity”. In the case of “RLKRWWKFL (also: cellulose-bound) [RLKRWWKFL (SEQ ID NO.:7), peptide synthesized on cellulose with the SPOT technology]”, the antimicrobial activity is reported as “showed antimicrobial activity”. With “KRKKRFKWW (also: cellulose-bound) [KRKKRFKWW (SEQ ID NO.:29), peptide synthesized on cellulose with the SPOT technology]” the antimicrobial activity was “showed antimicrobial activity”. “WKWRVRVTI (also: cellulose-bound) [WKWRVRVTI (SEQ ID NO.:27), peptide synthesized on cellulose with the SPOT technology]” was tested, and the antimicrobial activity was “showed antimicrobial activity”. With “RKFRWWVIR (also: cellulose-bound) [RKFRWWVIR (SEQ ID NO.:22), peptide synthesized on cellulose with the SPOT technology]” the antimicrobial activity was “showed antimicrobial activity”. With “YRLRVKWKW (also: cellulose-bound) [YRLRVKWKW (SEQ ID NO.:26), peptide synthesized on cellulose with the SPOT technology]” the antimicrobial activity was “showed antimicrobial activity”.
